For one assay, the system named is BT-549. The experiment in a line: Growth inhibition of human BT549 cells assessed as cell growth at 30 uM incubated for 48 hrs by sulforhodamine B assay relative to control. The assay is classed as functional. To be noted: BT-549, 48 h, read-out: Activity.
Assay [1] concerns the target Platelet-derived growth factor receptor beta (Homo sapiens) (UniProt P09619). The experiment in a line: Inhibition of human PDGFRbeta at 10 uM using poly[Glu:Tyr] (4:1) as substrate in presence of [33P]ATP by Hotspot assay relative to control.
The subject of the next assay is EKVX. The experiment in a line: Growth inhibition of human EKVX cells assessed as cell growth at 3 uM incubated for 48 hrs by sulforhodamine B assay relative to control. In kind it is functional. To be noted: read-out: Activity.
The next assay deals with T47D. The experiment in a line: Growth inhibition of human T47D cells assessed as cell growth at 10 uM incubated for 48 hrs by sulforhodamine B assay relative to control. The assay is classed as functional. To be noted: read-out: Activity.
The test system of assay [2] is SK-MEL-28. The experiment in a line: Growth inhibition of human SK-MEL-28 cells assessed as cell growth at 0.05 uM incubated for 48 hrs by sulforhodamine B assay relative to control. The assay is classed as functional. To be noted: SK-MEL-28, 48 h, read-out: Activity.
A further assay relates to TK-10. The experiment in a line: Growth inhibition of human TK10 cells assessed as cell growth at 5 uM incubated for 48 hrs by sulforhodamine B assay relative to control. To be noted: TK-10, 48 h, read-out: Activity. The assay is classed as functional.
The test system of assay [3] is SK-MEL-2. The experiment in a line: Growth inhibition of human SK-MEL-2 cells assessed as cell growth at 50 uM incubated for 48 hrs by sulforhodamine B assay relative to control. In kind it is functional. To be noted: SK-MEL-2, 48 h, read-out: Activity.
For a further assay, the system named is IGROV-1. The experiment in a line: Growth inhibition of human IGROV1 cells assessed as cell growth at 50 uM incubated for 48 hrs by sulforhodamine B assay relative to control. The assay is classed as functional. To be noted: IGROV-1, 48 h, read-out: Activity.
For assay [4], the system named is SK-OV-3. The experiment in a line: Growth inhibition of human SKOV3 cells assessed as cell growth at 5 uM incubated for 48 hrs by sulforhodamine B assay relative to control. The assay is classed as functional. To be noted: SK-OV-3, 48 h, read-out: Activity.
The test system of the next assay is M14. The experiment in a line: Growth inhibition of human M14 cells assessed as cell growth at 50 uM incubated for 48 hrs by sulforhodamine B assay relative to control. In kind it is functional. To be noted: M14, 48 h, read-out: Activity.
Another assay concerns SNB-19. The experiment in a line: Growth inhibition of human SNB19 cells assessed as cell growth at 50 uM incubated for 48 hrs by sulforhodamine B assay relative to control. The assay is classed as functional. To be noted: SNB-19, 48 h, read-out: Activity.
In the next assay the test system is UACC-62. The experiment in a line: Growth inhibition of human UACC62 cells assessed as cell growth at 0.5 uM incubated for 48 hrs by sulforhodamine B assay relative to control. In kind it is functional. To be noted: UACC-62, 48 h, read-out: Activity.
Another assay has as its system OVCAR-3. The experiment in a line: Growth inhibition of human OVCAR3 cells assessed as cell growth at 0.005 uM incubated for 48 hrs by sulforhodamine B assay relative to control. The assay is classed as functional. To be noted: OVCAR-3, 48 h, read-out: Activity.
Another assay has as its system UACC-257. The experiment in a line: Growth inhibition of human UACC257 cells assessed as cell growth at 0.5 uM incubated for 48 hrs by sulforhodamine B assay relative to control. To be noted: UACC-257, 48 h, read-out: Activity. The assay is classed as functional.
The next assay deals with U-251. The experiment in a line: Growth inhibition of human U251 cells assessed as cell growth at 5 uM incubated for 48 hrs by sulforhodamine B assay relative to control. To be noted: U-251, 48 h, read-out: Activity. The assay is classed as functional.
For assay [5], the system named is SK-MEL-2. The experiment in a line: Growth inhibition of human SK-MEL-2 cells assessed as cell growth at 0.5 uM incubated for 48 hrs by sulforhodamine B assay relative to control. The assay is classed as functional. To be noted: SK-MEL-2, 48 h, read-out: Activity.
In assay [6] the test system is SK-MEL-28. The experiment in a line: Growth inhibition of human SK-MEL-28 cells assessed as cell growth at 5 uM incubated for 48 hrs by sulforhodamine B assay relative to control. To be noted: SK-MEL-28, 48 h, read-out: Activity. In kind it is functional.
Assay [7] has as its system SK-OV-3. The experiment in a line: Growth inhibition of human SKOV3 cells assessed as cell growth at 0.05 uM incubated for 48 hrs by sulforhodamine B assay relative to control. In kind it is functional. To be noted: SK-OV-3, 48 h, read-out: Activity.
For another assay, the system named is MCF7. The experiment in a line: Growth inhibition of human MCF7 cells assessed as cell growth at 5 uM incubated for 48 hrs by sulforhodamine B assay relative to control. In kind it is functional. To be noted: MCF7, 48 h, read-out: Activity.
The test system of another assay is ACHN. The experiment in a line: Growth inhibition of human ACHN cells assessed as cell growth at 0.005 uM incubated for 48 hrs by sulforhodamine B assay relative to control. To be noted: read-out: Activity. In kind it is functional.
The test system of another assay is SK-MEL-5. The experiment in a line: Growth inhibition of human SK-MEL-5 cells assessed as cell growth at 0.005 uM incubated for 48 hrs by sulforhodamine B assay relative to control. To be noted: SK-MEL-5, 48 h, read-out: Activity. The assay is classed as functional.
For a further assay, the system named is UO-31. The experiment in a line: Growth inhibition of human UO31 cells assessed as cell growth at 0.05 uM incubated for 48 hrs by sulforhodamine B assay relative to control. The assay is classed as functional. To be noted: UO-31, 48 h, read-out: Activity.
A further assay concerns LOX IMVI. The experiment in a line: Growth inhibition of human LOXIMVI cells assessed as cell growth at 50 uM incubated for 48 hrs by sulforhodamine B assay relative to control. To be noted: read-out: Activity. In kind it is functional.
In the next assay the test system is SF-295. The experiment in a line: Growth inhibition of human SF295 cells assessed as cell growth at 50 uM incubated for 48 hrs by sulforhodamine B assay relative to control. In kind it is functional. To be noted: SF-295, 48 h, read-out: Activity.
The subject of a further assay is A549. The experiment in a line: Growth inhibition of human A549/ATCC cells assessed as cell growth at 0.005 uM incubated for 48 hrs by sulforhodamine B assay relative to control. In kind it is functional. To be noted: A549, 48 h, read-out: Activity.
The next assay concerns RXF 393. The experiment in a line: Growth inhibition of human RXF393 cells assessed as cell growth at 0.5 uM incubated for 48 hrs by sulforhodamine B assay relative to control. The assay is classed as functional. To be noted: RXF 393, 48 h, read-out: Activity.
Another assay concerns MDA-MB-231. The experiment in a line: Growth inhibition of human MDA-MB-231 cells assessed as cell growth at 0.005 uM incubated for 48 hrs by sulforhodamine B assay relative to control. In kind it is functional. To be noted: MDA-MB-231, 48 h, read-out: Activity.
In the next assay the test system is DU-145. The experiment in a line: Growth inhibition of human DU145 cells assessed as cell growth at 0.05 uM incubated for 48 hrs by sulforhodamine B assay relative to control. The assay is classed as functional. To be noted: DU-145, 48 h, read-out: Activity.
In a further assay the test system is SF-539. The experiment in a line: Growth inhibition of human SF539 cells assessed as cell growth at 50 uM incubated for 48 hrs by sulforhodamine B assay relative to control. The assay is classed as functional. To be noted: SF-539, 48 h, read-out: Activity.
A further assay concerns NCI-H460. The experiment in a line: Growth inhibition of human NCI-H460 cells assessed as cell growth at 0.005 uM incubated for 48 hrs by sulforhodamine B assay relative to control. The assay is classed as functional. To be noted: NCI-H460, 48 h, read-out: Activity.
The next assay concerns HL-60(TB). The experiment in a line: Growth inhibition of human HL-60(TB) cells assessed as cell growth at 5 uM incubated for 48 hrs by sulforhodamine B assay relative to control. To be noted: HL-60, 48 h, read-out: Activity. In kind it is functional.
The subject of another assay is MOLT-4. The experiment in a line: Growth inhibition of human MOLT4 cells assessed as cell growth at 0.005 uM incubated for 48 hrs by sulforhodamine B assay relative to control. To be noted: MOLT-4, 48 h, read-out: Activity. In kind it is functional.
A further assay relates to HCC 2998. The experiment in a line: Growth inhibition of human HCC2998 cells assessed as cell growth at 0.5 uM incubated for 48 hrs by sulforhodamine B assay relative to control. In kind it is functional. To be noted: HCC 2998, 48 h, read-out: Activity.

Platelet-derived growth factor receptor beta (Homo sapiens), sequence (P09619 whole entry): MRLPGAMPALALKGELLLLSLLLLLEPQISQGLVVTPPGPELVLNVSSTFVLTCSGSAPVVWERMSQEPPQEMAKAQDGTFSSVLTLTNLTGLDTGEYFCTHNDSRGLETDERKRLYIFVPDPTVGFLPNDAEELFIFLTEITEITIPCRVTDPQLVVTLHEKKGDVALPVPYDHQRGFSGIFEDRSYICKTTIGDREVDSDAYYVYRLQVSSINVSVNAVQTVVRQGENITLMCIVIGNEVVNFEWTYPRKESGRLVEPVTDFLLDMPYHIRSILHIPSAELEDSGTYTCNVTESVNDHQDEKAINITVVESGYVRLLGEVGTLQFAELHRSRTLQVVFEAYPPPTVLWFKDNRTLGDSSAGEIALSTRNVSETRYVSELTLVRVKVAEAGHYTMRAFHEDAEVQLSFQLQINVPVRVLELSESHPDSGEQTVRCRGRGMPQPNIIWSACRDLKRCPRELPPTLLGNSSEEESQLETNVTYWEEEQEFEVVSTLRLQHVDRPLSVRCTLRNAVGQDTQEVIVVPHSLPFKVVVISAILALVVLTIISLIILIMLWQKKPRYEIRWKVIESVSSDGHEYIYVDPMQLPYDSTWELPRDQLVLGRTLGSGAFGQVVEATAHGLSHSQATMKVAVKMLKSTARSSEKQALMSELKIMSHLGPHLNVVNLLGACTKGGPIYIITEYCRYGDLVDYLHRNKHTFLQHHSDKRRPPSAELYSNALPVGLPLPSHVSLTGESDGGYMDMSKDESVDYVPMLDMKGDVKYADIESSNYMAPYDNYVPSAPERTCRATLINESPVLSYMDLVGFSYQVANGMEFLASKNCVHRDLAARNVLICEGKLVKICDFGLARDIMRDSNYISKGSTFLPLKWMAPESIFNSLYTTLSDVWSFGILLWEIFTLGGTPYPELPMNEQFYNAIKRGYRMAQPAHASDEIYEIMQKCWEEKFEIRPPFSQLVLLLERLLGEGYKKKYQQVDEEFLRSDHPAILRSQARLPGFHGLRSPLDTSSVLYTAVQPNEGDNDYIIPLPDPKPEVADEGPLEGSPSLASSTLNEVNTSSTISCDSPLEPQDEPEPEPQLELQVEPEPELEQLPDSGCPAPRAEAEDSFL

On to `COc1cc2cc(Oc3ccc(NC(=O)Nc4ccc(Cl)c(C(F)(F)F)c4)cc3)c(C)nc2cc1OC`, for which the growth at 30 µM with BT-549 was -65%. Also, in assay [1], the inhibition is 29.5%. The growth at 3 µM in the assay with EKVX was 5%.

Turning to `COc1cc2cc(Oc3ccc(NC(=O)Nc4cc(C(F)(F)F)cc(C(F)(F)F)c4)cc3)c(C)nc2cc1OC`, in the assay on T47D, the growth at 10 µM is -21%.

Regarding `COc1cc2cc(Oc3ccc(NC(=O)Nc4cccc(C(F)(F)F)c4)cc3)c(C)nc2cc1OC`, the growth at 0.05 µM was 98% in the assay with SK-MEL-28 [2], 95% in the assay on SK-OV-3 [7], 91% in the assay with UO-31 and 94% in the assay with DU-145. Further, the growth at 5 µM is 19% in the assay on TK-10; 18% in the assay with SK-OV-3 [4]; 5% in the assay on U-251; 21% in the assay on SK-MEL-28 [6]; 3% with MCF7; -13% in the assay with HL-60(TB). The growth at 50 µM with SK-MEL-2 [3] is -87%; with IGROV-1 it was -14%; with M14, -61%; in the assay on SNB-19, -26%; in the assay with LOX IMVI it was -99%; with SF-295, -63%. Also, the growth at 50 µM in the assay with SF-539 was -82%. Moreover, the growth at 0.5 µM in the assay with UACC-62 turned out to be 86%; with UACC-257 it was 82%; with SK-MEL-2 [5] it was 108%; in the assay with RXF 393 it was 103%; with HCC 2998, 109%. Besides, the growth at 0.005 µM in the assay with OVCAR-3 amounted to 101%; in the assay on ACHN it was 97%; in the assay with SK-MEL-5 it was 96%; with A549, 98%; in the assay with MDA-MB-231, 93%; in the assay with NCI-H460, 96%. Further, the growth at 0.005 µM in the assay with MOLT-4 was 97%.

The values above are taken from ChEMBL document CHEMBL3994622, “Design and synthesis of new RAF kinase-inhibiting antiproliferative quinoline derivatives. Part 2: Diarylurea derivatives” (Eur J Med Chem, 2017).
